The values that follow come from patent publication US20240041050A1, “CELL PENETRATING PEPTIDE MEDIATED RNA TRANSDUCTION WITHIN INSECT CELLS” (PIONEER HI-BRED INTERNATIONAL, INC., priority 2020, published 2024).

Assay in all cases: CPP-mediated delivery of mCherry mRNA cargo into insect cells
Common to all, as to conditions: complex of 75 μM unlabeled CPP and 10 μg mCherry mRNA, overnight

One test deals with Sf9 cells. The test is classed as cell-based, Spodoptera frugiperda. An excerpt:
(§1) Sample preparation and analysis methods were based on those previously reported (Jafari et al. (201 4) “Serum stability and physicochemical characterization of a novel amphipathic peptide C6M 1 for siRNA delivery”, PLoS One, 9(5), e97797; and Gillet et al. (2017) “Investigating Engineered Ribonucleoprotein Particles to Improve Oral RNAi Delivery in Crop Insect Pests”, Frontiers in Physiology, 8(256), doi: 10.3389/fphys.2017.00256). Reagents are described in Examples 1 and 2. Nanocomplex samples were prepared in one of several ways, depending on type of CPP, RNA, or assay. […] Reaction volumes added to cells were 6.38 μL CPP and 6.38 μL mRNA. Final optimal CPP concentration was assessed by amount of fluorescent signal apparent within cells. For insect cell-based assays with CPP-YFP·Cy3-dsRNA or CPP·dsRNA, first a complex formation solution was prepared in molecular biology-grade water containing 90 mg·mL^−1 maltose, 9 mg·mL^−1 mannitol, 392. 16 mM CaCI2, pH 7.0, and vacuum-filtered using Corning™ Disposable Vacuum Filter and Storage System containing a cellulose nitrate filter. Then, increasing amounts of CPP-YFP were added to Cy3-dsRNA, from a molar ratio (CPP-YFP:Cy3-dsRNA) of 1:4 through 8:1 and incubated protected from light at 25° C. for 90 minutes prior to assessment via gel shift and DLS. Reaction volumes added per cell well were comprised of 17 μL reaction solution, 1 μL CPP, 1 μL dsRNA, and 1 μL molecular biology grade water; reaction sizes for larger total volumes were increased in increments of 20 μL and component ratio was held constant to maintain an ionic strength of […]. Final optimal molar ratio selected for cell experiments were determined by increase of the apparent size of the Cy3-dsRNA band on a native agarose gel (FIG. 2A and FIG. 2B), and/or appearance and increase in size of the complex peak detected by a Zetasizer Ultra (Malvern Panalytical, Malvern, United Kingdom) DLS instrument (FIG. 2C). […] Final optimal BAPC1 concentration was assessed by amount of fluorescent signal apparent within cells. […]

For another test, the system named is DU182A cells. The test is classed as cell-based, Diabrotica undecimpunctata.
From the text: as §1

Another test deals with DvWL2 cells. The test is classed as cell-based, Diabrotica virgifera virgifera.
From the text: as §1

Peptide text beside a SMILES is read from it.

On to `N=C(N)NCCC[C@H](NC(=O)[C@H](Cc1c[nH]c2ccccc12)NC(=O)[C@H](CCCNC(=N)N)NC(=O)[C@@H](N)CS)C(=O)N[C@@H](Cc1c[nH]c2ccccc12)C(=O)N[C@@H](CCCCN)C(=O)N[C@@H](CS)C(=O)N[C@@H](CS)C(=O)N[C@@H](CCCCN)C(=O)N[C@@H](CCCCN)C(=O)O` [CyLoP-1, CRWRWKCCKK] (H-CRWRWKCCKK-OH; N-terminus and C-terminus assumed), for which the “fluorescent protein translated from delivered mCherry mRNA (fluorescent signal inside cells)” value in the test with Sf9 cells, in the test with DU182A cells and in the test on DvWL2 cells was “Translation of mRNA into a functional fluorescent protein occurred” throughout.
